Source: US20090170851A1, “Chroman Compounds” (priority 2005, published 2009)

Structure (SMILES) | melting point [°C]
COc1cc2c(c(N3CCN(C)CC3)c1)OC(C(=O)Nc1ccc(N3CCN(C)CC3)cc1)CC2 (stereo not drawn) [Example 35, 6-methoxy-8-(4-methylpiperazin-1-yl)-N-(4-(4-methylpiperazin-1-yl)phenyl)chroman-2-carboxamide] | 180 to 190
CN1CCN(c2ccc(NC(=O)C3CCc4cc(F)cc(N5CCN(C)CC5)c4O3)cc2)CC1 (stereo not drawn) [Example 41, 6-fluoro-8-(4-methylpiperazin-1-yl)-N-(4-(4-methylpiperazin-1-yl)phenyl)chroman-2-carboxamide] | 150 to 160
CCC(=O)N1CCN(c2ccc(NC(=O)C3CCc4cc(F)cc(N5CCN(C)CC5)c4O3)cc2)CC1 (stereo not drawn) [Example 32, 6-fluoro-8-(4-methylpiperazin-1-yl)-N-(4-(4-proprionyl-piperazin-1-yl)phenyl)chroman-2-carboxamide] | 160 to 165
